Our source for the IC50 values is patent US10722514B2 (FLX Bio, Inc., priority 2017, dated 2020).

The first experiment deals with T1, recombinant full-length USP7 (Homo sapiens, UniProt Q93009).
T1 construct: A 25 μl reaction volume containing recombinant full-length USP7 (62 pM)
T1 sequence (Q93009 whole entry): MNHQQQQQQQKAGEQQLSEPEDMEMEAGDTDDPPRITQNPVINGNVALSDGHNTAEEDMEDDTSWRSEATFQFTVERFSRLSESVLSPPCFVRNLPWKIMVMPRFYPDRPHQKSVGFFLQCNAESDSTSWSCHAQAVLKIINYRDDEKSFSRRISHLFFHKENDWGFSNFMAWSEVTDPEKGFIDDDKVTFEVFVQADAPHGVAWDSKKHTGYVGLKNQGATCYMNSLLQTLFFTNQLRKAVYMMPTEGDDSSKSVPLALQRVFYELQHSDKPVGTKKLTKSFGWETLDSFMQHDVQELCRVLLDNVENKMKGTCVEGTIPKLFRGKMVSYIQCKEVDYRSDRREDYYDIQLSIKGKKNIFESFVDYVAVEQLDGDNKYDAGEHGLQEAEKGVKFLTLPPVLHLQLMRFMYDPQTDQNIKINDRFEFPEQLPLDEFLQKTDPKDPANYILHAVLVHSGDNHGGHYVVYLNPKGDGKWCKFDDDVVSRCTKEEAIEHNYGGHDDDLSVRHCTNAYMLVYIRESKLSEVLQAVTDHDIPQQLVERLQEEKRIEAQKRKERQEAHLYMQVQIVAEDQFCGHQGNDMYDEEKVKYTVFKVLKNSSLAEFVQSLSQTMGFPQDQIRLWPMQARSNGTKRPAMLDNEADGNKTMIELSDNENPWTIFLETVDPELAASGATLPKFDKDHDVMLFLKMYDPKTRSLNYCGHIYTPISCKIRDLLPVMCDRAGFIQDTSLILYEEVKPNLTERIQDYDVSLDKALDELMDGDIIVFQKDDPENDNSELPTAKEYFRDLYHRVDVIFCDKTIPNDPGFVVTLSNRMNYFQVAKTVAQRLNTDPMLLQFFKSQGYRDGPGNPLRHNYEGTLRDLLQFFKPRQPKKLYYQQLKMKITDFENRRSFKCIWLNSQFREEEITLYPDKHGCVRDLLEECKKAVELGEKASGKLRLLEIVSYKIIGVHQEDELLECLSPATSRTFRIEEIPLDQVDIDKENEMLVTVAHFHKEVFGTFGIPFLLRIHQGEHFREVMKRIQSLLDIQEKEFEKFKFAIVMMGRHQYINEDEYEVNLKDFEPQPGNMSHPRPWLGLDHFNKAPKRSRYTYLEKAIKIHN
The experiment is described as follows: USP7-mediated ubiquitin-rhodamine cleavage assay. The experiment is classed as biochemical. To be noted: recombinant full-length USP7 62 pM; ubiquitin-rhodamine 100 nM; 30-minute incubation with compound, 1 hour reaction at room temperature; read-out: Potency: USP7 IC50. The procedure, abridged:
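Enzyme 62 pM; HEPES pH 7.3/150 mM NaCl/1 mM TCEP/125 μg/ml BSA; 1% DMSO; 30 min cpd preinc RT; Ub-rhodamine 100 nM, 1 h RT, dark; acetic acid stop; fluorescence; IC50 4-param fit.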
Regarding `Cc1cc(Cl)cc(-c2ncnc3cc(CN4C(=O)C5C(C4=O)C5(C)C)sc23)c1O[C@H]1CCCN[C@@H]1C` (stereo partly drawn) [Example 360, 3-[[4-[5-chloro-3-methyl-2-[[(2R,3S)-2-methyl-3-piperidyl]oxy]phenyl]thieno[3,2-d]pyrimidin-6-yl]methyl]-6,6-dimethyl-3-azabicyclo[3.1.0]hexane-2,4-dione], the IC50 (as a rule, the concentration at which inhibition is half-maximal) is less than 1 µM. Consider `Cc1cc(Cl)cc(-c2ccnc3cc(CN4C(=O)NC(C)(C)C4=O)sc23)c1OC1CCNCC1` [Example 185, 3-((7-(5-Chloro-3-methyl-2-(piperidin-4-yloxy)phenyl)thieno[3,2-b]pyridin-2-yl)methyl)-5,5-dimethylimidazolidine-2,4-dione], for which the concentration for half-maximal inhibition (IC50) is less than 1 µM. Same read-out and setting: then `Cc1cc(Cl)cc(-c2ccnc3cc(CN4C(=O)CSC4=O)sc23)c1O[C@H]1CCCNC1` [Example 249, (S)-3-((7-(5-Chloro-3-methyl-2-(piperidin-3-yloxy)phenyl)thieno[3,2-b]pyridin-2-yl)methyl)thiazolidine-2,4-dione], with less than 1 µM; and `CCC(O)c1cc2ncnc(-c3cc(Cl)cc(C)c3O[C@@H]3CNC[C@@H]3F)c2s1` (stereo partly drawn) [Example 94, 1-(4-(5-Chloro-2-(((3R,4S)-4-fluoropyrrolidin-3-yl)oxy)-3-methylphenyl)thieno[3,2-d]pyrimidin-6-yl)propan-1-ol], with 1 to 10 µM. On to `Cc1cc(Cl)cc(-c2ccnc3cc(CO)sc23)c1O[C@@H]1CCC[C@H]1N(C)C` [Example 92, (7-(5-Chloro-2-(((1R,2R)-2-(dimethylamino)cyclopentyl)oxy)-3-methylphenyl)thieno[3,2-b]pyridin-2-yl)methanol], for which the IC50 is more than 30 µM. Same read-out and setting: then `Cc1cc(Cl)cc(-c2ccnc3cc(CN4C(=O)C5C(C4=O)C5(C)C)sc23)c1OC1CNCC(C)(C)C1` [Example 362, 3-[[7-[5-chloro-2-[[(3S)-5,5-dimethyl-3-piperidyl]oxy]-3-methyl-phenyl]thieno[3,2-b]pyridin-2-yl]methyl-6,6-dimethyl-3-azabicyclo[3.1.0]hexane-2,4-dione], with less than 1 µM.

With `Cc1cc(Cl)cc(-c2ccnc3cc(CO)sc23)c1OCC1(F)CNC1` [Example 20, (7-(5-Chloro-2-((3-fluoroazetidin-3-yl)methoxy)-3-methylphenyl)thieno[3,2-b]pyridin-2-yl)methanol], the 50% inhibitory concentration (IC50) was 1 to 10 µM. The same measure, in the same setting: for `Cc1cc(Cl)cc(-c2ccnc3cc(CO)sc23)c1OC1CC2(CNC2)C1` [Example 48, (7-(2-((2-Azaspiro[3.3]heptan-6-yl)oxy)-5-chloro-3-methylphenyl)thieno[3,2-b]pyridin-2-yl)methanol] the value was 10 to 30 µM.

The experiment is the same for the next values; noted with them: recombinant full-length USP7 62 pM; ubiquitin-rhodamine 100 nM; 30-minute pre-incubation, 1 hour reaction at room temperature; read-out: Potency (USP7 IC50).
Consider `Cc1cc(Cl)cc(-c2ccnc3cc(Cn4c(=O)ccn(CC(F)(F)F)c4=O)sc23)c1OC1CC(N2CCC(F)(F)CC2)C1` (centres unmarked) [Example 668, 3-[[7-[5-chloro-2-[3-(4,4-difluoro-1-piperidyl)cyclobutoxy]-3-methyl-phenyl]thieno[3,2-b]pyridin-2-yl]methyl]-1-(2,2,2-trifluoroethyl)pyrimidine-2,4-dione; 2,2,2-trifluoroacetic acid], for which the IC50 was less than 1 µM. For the compound `Cc1cc(Cl)cc(-c2ncnc3cc(Cn4c(=O)ccn(CC(F)(F)F)c4=O)sc23)c1O[C@@H]1CCNC[C@@H]1C` [Example 520, 3-[[4-[5-chloro-3-methyl-2-[[(3S,4R)-3-methyl-4-piperidyl]oxy]phenyl]thieno[3,2-d]pyrimidin-6-yl]methyl]-1-(2,2,2-trifluoroethyl)pyrimidine-2,4-dione], the half-inhibitory concentration (IC50) is less than 1 µM.

On to `CCN1CC[C@@H](Oc2c(C)cc(Cl)cc2-c2ccnc3cc(Cn4c(=O)ccn(C)c4=O)sc23)[C@@H](C)C1` [Example 455, 3-[[7-[5-chloro-2-[[(3S,4R)-1-ethyl-3-methyl-4-piperidyl]oxy]-3-methyl-phenyl]thieno[3,2-b]pyridin-2-yl]methyl]-1-methyl-pyrimidine-2,4-dione], for which the IC50 is less than 1 µM.
